Results: PMC6664433 (Cancer discovery, 2019)

What was measured:
[1] = system: Ba/F3 cells containing the L858R/C797S mutation; assay: Ba/F3 cell proliferation; assay type: cell-based, murine; settings: compared to gefitinib
[2] = system: H1975 xenograft mouse model; settings: for tumor volume change at day 18: osimertinib 2.5mg/kg, JBJ-04-125-02 100mg/kg, or both
[3] = system: Ba/F3 cell lines stably transfected with EGFR L858R, L858R/T790M or L858R/T790M/C797S; assay: Ba/F3 cell proliferation; assay type: cell-based, murine; settings: single agent, 72 hours
MAP4K5 = MAP4K5 (Homo sapiens, UniProt Q9Y4K4); assay: KINOMEscan kinome selectivity profiling; assay type: binding; settings: 10µM
[4] = system: EGFR L858R/T790M/C797S genetically engineered mice; assay: Efficacy study in GEM mice; assay type: in vivo
[5] = system: Del_19-containing EGFR mutants; assay: KINOMEscan kinome selectivity profiling; assay type: binding, human; settings: 10µM
panel of 468 kinases = assay: KINOMEscan kinome selectivity profiling; assay type: binding, human; settings: 10µM, 35% cut-off
TIE1 = TIE1 (Homo sapiens, UniProt P35590); assay: KINOMEscan kinome selectivity profiling; assay type: binding; settings: 10µM
L858R/T790M Ba/F3 cells = assay: ENU mutagenesis resistant colony assay; settings: after ENU; 1μM osimertinib, 10μM JBJ-04-125-02, or combination; of 300 colonies
H3255GR cells [6] = assay: Cell viability assay; settings: 72 hours
H3255GR cells [7] = assay: IncuCyte Caspase-3/7 apoptosis assay; assay type: cell-based, human; settings: 0.1μM osimertinib, 10μM allosteric inhibitor, or both; 72 hours
H3255GR cells [8] = assay: IncuCyte long-term confluency assay; assay type: cell-based, human; settings: osimertinib 1μM, JBJ-04-125-02 10μM or both, 2 weeks of treatment
H1975 cells [9] = assay: Western blotting of EGFR, AKT, ERK1/2 phosphorylation; settings: 4 hours, compared to osimertinib
H1975 cells [10] = assay: Cell viability assay; settings: 72 hours
TIE2 = TIE2 (Homo sapiens, UniProt Q02763); assay: KINOMEscan kinome selectivity profiling; assay type: binding; settings: 10µM
[11] = system: wild-type EGFR Ba/F3 cells; assay: Ba/F3 cell proliferation; assay type: cell-based, murine; settings: 72 hours
Pharmacokinetic study = assay type: in vivo
parental Ba/F3 cells = assay: Ba/F3 cell proliferation; assay type: cell-based, murine; settings: 72 hours
[12] = system: H1975 xenograft mouse model; assay: Pharmacodynamic study in H1975 xenograft; settings: 3 doses; JBJ-04-125-02 100mg/kg, osimertinib 25mg/kg
[13] = system: Ba/F3 cells harboring EGFR Del_19 variants; assay: Ba/F3 cell proliferation; assay type: cell-based, murine; settings: 72 hours
[14] = system: EGFR L858R/T790M/C797S genetically engineered mice; assay: Pharmacodynamic study in GEM mice; assay type: in vivo; settings: oral gavage once daily, 3 doses
[15] = system: EGFR-mutant NSCLC patients; settings: cited from earlier work; for PFS: osimertinib vs comparator arm gefitinib or erlotinib; for median PFS: patients with an L858R mutation, comparator arm gefitinib or erlotinib
[16] = system: patients with advanced EGFR mutant NSCLC; settings: initial therapy; cited from earlier work
[17] = system: patients with EGFR T790M-mediated drug resistance; settings: cited from earlier work
L858R/T790M EGFR = L858R/T790M EGFR (Homo sapiens, UniProt P00533, L858R/T790M); assay: HTRF-based EGFR biochemical assay; settings: read-out: IC50 (biochemical potency); enzyme 20pM, 100µM ATP
EGFR-mutant models = settings: without cetuximab; cited from earlier work
EGFR = assay: Biotinylated EAI045 pull-down assay; assay type: binding; settings: following osimertinib treatment

SMILES: O=C(Nc1nccs1)C(c1cc(F)ccc1O)N1Cc2ccc(-c3ccc(N4CCNCC4)cc3)cc2C1=O (stereo not drawn) [JBJ-04-125-02]
- inhibition of cell proliferation [1]: not as potent as gefitinib in inhibiting cell proliferation
- tumor volume change at day 18 [2]: minimal reduction in tumor volume
- tumor growth ([2]; osimertinib 25mg/kg, JBJ-04-125-02 100mg/kg, 35 days): tumor stasis and occasional shrinkage in some mice
- inhibition of cell proliferation [3]: could inhibit cell proliferation as a single agent
- % control (MAP4K5): 9.5 % control
- weight loss or signs of toxicity ([4]; 50mg/kg long-term treatment): not associated with weight loss or overt signs of toxicity
- change in tumor volume ([4]; 50mg/kg, within 4 weeks, sustained for 15 weeks): marked tumor regressions
- binding affinity [5]: lacks binding affinity
- S-Score (35) (panel of 468 kinases): 0.02
- % control (TIE1): 29 % control
- resistant colonies (L858R/T790M Ba/F3 cells): 72%
- sensitivity of cell proliferation (H3255GR cells [6]): resistant
- apoptosis (Caspase-3/7 activity) (H3255GR cells [7]): no more effective than DMSO
- confluency at 2 weeks (H3255GR cells [8]): reached full confluency
- EGFR and ERK1/2 phosphorylation (H1975 cells [9]): downregulate EGFR and ERK1/2 phosphorylation more potently than osimertinib
- concentration inhibiting cell proliferation (H1975 cells [10]): low nanomolar concentrations
- % control (TIE2): 33 % control
- inhibition of growth [11]: did not inhibit the growth
- area under the curve (AUClast) (Pharmacokinetic study; 3 mg/kg intravenous (IV) dose): 728577 ng·min/mL
- half-life (Pharmacokinetic study; 3 mg/kg intravenous (IV) dose): 3 h
- average maximal plasma concentration (Pharmacokinetic study; 20mg/kg oral dose): 1.1 µM
- oral bioavailability (Pharmacokinetic study; 20mg/kg oral dose): 3%
- inhibition of growth (parental Ba/F3 cells): did not inhibit the growth
- EGFR, AKT and ERK1/2 phosphorylation in tumors [12]: reduction in EGFR phosphorylation but only subtle changes in AKT and ERK1/2 phosphorylation
- sensitivity of cell proliferation [13]: resistant
- phosphorylation of EGFR, AKT and ERK1/2 in tumors ([14]; 50mg/kg and 100mg/kg): effectively inhibited phosphorylation of EGFR, AKT and ERK1/2

SMILES: C=CC(=O)Nc1cc(Nc2nccc(-c3cn(C)c4ccccc34)n2)c(OC)cc1N(C)CCN(C)C [osimertinib, reference compound]
- tumor volume change at day 18 [2]: minimal reduction in tumor volume
- tumor regression ([2]; osimertinib 25mg/kg alone or with JBJ-04-125-02 100mg/kg, 28 days): ~100%
- sensitivity of cell proliferation (H3255GR cells [6]): sensitive
- apoptosis (Caspase-3/7 activity) (H3255GR cells [7]): time-dependent increase in apoptosis
- PFS [15]: 18.9 months
- median PFS [15]: 14.4 months
- confluency at 2 weeks (H3255GR cells [8]): 24%
- PFS [16]: 19.3 months
- RR [16]: 77%
- progression free survivals (PFS) [17]: 9.9–12.3 months
- response rate (RR) [17]: 62–71%
- EGFR, AKT and ERK1/2 phosphorylation in tumors [12]: complete inhibition of EGFR phosphorylation

SMILES: C#Cc1cccc(Nc2ncnc3cc(OCCOC)c(OCCOC)cc23)c1 [erlotinib]
- PFS [15]: 10.2 months
- median PFS [15]: 9.5 months

SMILES: O=C(Nc1nccs1)C(c1ccccc1)N1Cc2ccc(-c3ccc4[nH]ccc4c3)cc2C1=O (stereo not drawn) [JBJ-02-112-05]
- change in tumor volume ([4]; 100mg/kg): ineffective
- IC50 (L858R/T790M EGFR): 15 nM
- phosphorylation of EGFR and downstream signaling in tumors ([14]; 100mg/kg): also inhibited phosphorylation of EGFR and downstream signaling pathways although not as robustly as JBJ-04-125-02

SMILES: O=C(Nc1nccs1)C(c1cc(F)ccc1O)N1Cc2ccccc2C1=O (stereo not drawn) [EAI045]
- single agent efficacy (EGFR-mutant models): not effective as a single agent
- co-binding with osimertinib (EGFR): did indeed co-bind with osimertinib and increase EGFR precipitation
